Test results reported in patent US8796264B2, “2-piperazin-1-yl-4H-1,3-benzothiazin-4-one derivatives and their use for the treatment of mammalian infections” (Ecole Polytechnique Federale de Lausanne (EPFL), priority 2010, dated 2014).
Converted amounts (≈) assume the structure as drawn.

What was measured:
[1] = Intrinsic clearance in liver microsomes
Protocol: (§1) Next, PBTZ169 and BTZ043 were incubated at a concentration of 1 μg/mL with 0.1 mg of human or mouse liver microsomes (Invitrogen) in order to measure their intrinsic clearance. The relative amounts of the original compound remaining over time were determined by HPLC.

M. smegmatis = experiment: In vitro inhibitory activity, resazurin reduction assay (MIC99); assay type: cell-based, Mycobacterium smegmatis; settings: Mycolicibacterium smegmatis, read-out: typical MIC values, M. smegmatis
M. tuberculosis H37Rv = experiment: as above; assay type: cell-based, Mycobacterium tuberculosis; settings: for MIC: Mycobacterium tuberculosis, H37RV, resazurin reduction assay (MIC99), read-out: typical MIC values, M. tuberculosis H37Rv
[2] = test system: M. tuberculosis strain H37Rv; experiment: In vivo efficacy in the acute murine TB model; design: species or system mice; settings: for Log of CFU lungs: 4 weeks treatment, intragastric 5 times a week; for Log of CFU lungs / Medium longevity (days) M ± SEM: compounds and BTZ043 50 mg/kg, isoniazid 25 mg/kg; for Result of treatment, macroscopic condition of the lungs: treatment for prescribed time
HepG2 cells = experiment: Cytotoxicity TC50, resazurin reduction assay; assay type: cell-based, human; settings: 72 h incubation
Protocol: (§2) The selectivity index (SI) of a compound provides a good indication of the potential tolerability of a drug candidate. […] The TC50 of PBTZ169 and BTZ043 were established using two human cell lines, the hepatocyte line HepG2 and the pneumocyte line A549, using the resazurin reduction assay after incubation with varying amounts of the compounds for 72 h. […] The respective MICs were 1 and 2 ng/ml for PBTZ169 and BTZ043. […] In clinical terms, PBTZ169 should be safer and better tolerated than BTZ043.

A549 cells = experiment: Cytotoxicity TC50, resazurin reduction assay; assay type: cell-based, human; settings: 72 h incubation
Protocol: as §2

[3] = Chemical stability in simulated gastric fluid; assay type: physicochemical; settings: 5 μM, after 60 minutes
[4] = Acute toxicity after administration per os; settings: mouse, in vivo, mice
Protocol: The compounds of the invention are non-toxic after administration per os of doses ranging up to 2000 mg/kg. The compound was well tolerated by animals in the first 24 hours after introduction. […] There were no cases of animal death. LD50 for compounds (2) and (18) is >2000 mg/kg.

in vitro = settings: human, plasma
Protocol: as §1

[5] = test system: M. tuberculosis strain H37Rv; experiment: In vivo efficacy in the chronic murine TB model; design: species or system mice; settings: 50 mg/kg by gavage once daily, six-times/week, 4 weeks
[6] = test system: Corynebacterium glutamicum ATCC13032; experiment: In vitro inhibitory activity against actinobacteria (MIC); assay type: cell-based; settings: read-out: typical MIC values, Corynebacterium glutamicum ATCC13032
[7] = 1 μg/mL with 0.1 mg microsomes, HPLC

| Structure (SMILES) | melting point | MIC (M. smegmatis) | MIC (M. tuberculosis H37Rv) | MIC [6] | further results |
| --- | --- | --- | --- | --- | --- |
| NC(=O)N1c2ccccc2C=Cc2ccccc21 [Carbamazepine] |  |  |  |  | Intrinsic Clearance (Clint), Human liver microsomes ([1]; human, microsomes): 0.6 μL/min/mg of protein; Intrinsic Clearance (Clint), Mouse liver microsomes ([1]; mouse, microsomes): 1.1 μL/min/mg of protein |
| O=c1nc(N2CCN(C3CCCCC3)CC2)sc2c([N+](=O)[O-])cc(C(F)(F)F)cc12 [Compound 1, 2-(4-cyclonexylpiperazin-1-yl)-8-nitro-6-(trifluoromethyl)-4H-1,3-benzothiazin-4-one] | 189 to 191 °C | ≤ 0.17 µg/mL | 0.00075 µg/mL (≈ 0.0017 µM) |  |  |
| O=c1nc(N2CCN(CC3CCCCC3)CC2)sc2c([N+](=O)[O-])cc(C(F)(F)F)cc12 [Compound 2, 2-[4-(cyclohexylmethyl)piperazin-1-yl]-8-nitro-6-(trifluoromethyl)-4H-1,3-benzothiazin-4-one] |  | ≤ 0.17 µg/mL | ≤ 0.00019 µg/mL |  | Log of CFU lungs [2]: 4.30; Medium longevity (days) M ± SEM [2]: Alive at sacrifice; Result of treatment, macroscopic condition of the lungs [2]: marked improvement; TC50 against HepG2 cells (HepG2 cells): 66.7 µg/mL (≈ 146 µM); TC50 against A549 cells (A549 cells): 73.2 µg/mL (≈ 160 µM); Compound remained in simulated gastric fluid [3]: 67%; Intrinsic Clearance (Clint), Human liver microsomes [1, 7]: 23.9 μL/min/mg of protein; Intrinsic Clearance (Clint), Mouse liver microsomes [1, 7]: 20.9 μL/min/mg of protein; LD50 at 7 days [4]: > 2000 mg/kg; half-life (in vitro): > 1 h; Reduction of the CFU load in the lungs and spleens compared to treatment with BTZ043 [5]: significantly more efficacious; MIC used for the selectivity index (M. tuberculosis H37Rv; strain not stated): 0.001 µg/mL |
| CCCCN1CCN(c2nc(=O)c3cc(C(F)(F)F)cc([N+](=O)[O-])c3s2)CC1 [Compound 3, 2-(4-butylpiperazin-1-yl)-8-nitro-6-(trifluoromethyl)-4H-1,3-benzothiazin-4-one] | 119 to 120 °C | ≤ 0.17 µg/mL | 0.0015 µg/mL (≈ 0.0036 µM) |  |  |
| CC(C)CN1CCN(c2nc(=O)c3cc(C(F)(F)F)cc([N+](=O)[O-])c3s2)CC1 [Compound 4] | 150 to 153 °C | ≤ 0.0019 µg/mL | ≤ 0.0019 µg/mL | 0.031 µg/mL (≈ 0.0744 µM) |  |
| CCC(C)N1CCN(c2nc(=O)c3cc(C(F)(F)F)cc([N+](=O)[O-])c3s2)CC1 (stereo not shown) [Compound 5, 2-(4-sec-butylpiperazin-1-yl)-8-nitro-6-(trifluoromethyl)-4H-1,3-benzothiazin-4-one] | 127 to 128 °C | ≤ 0.0019 µg/mL | 0.00037 µg/mL (≈ 0.000889 µM) | 0.062 µg/mL (≈ 0.149 µM) |  |
| O=c1nc(N2CCN(CCC3CCCCC3)CC2)sc2c([N+](=O)[O-])cc(C(F)(F)F)cc12 [Compound 6, 2-[4-(2-cyclohexylethyl)piperazin-1-yl]-8-nitro-6-(trifluoromethyl)-4H-1,3-benzothiazin-4-one] | 175 to 177 °C | ≤ 0.0019 µg/mL | ≤ 0.00019 µg/mL | 0.125 µg/mL (≈ 0.266 µM) |  |
| CCCC(C)N1CCN(c2nc(=O)c3cc(C(F)(F)F)cc([N+](=O)[O-])c3s2)CC1 (stereo not shown) [Compound 7, 2-[4-(1-methylbutyl)piperazin-1-yl]-8-nitro-6-(trifluoromethyl)-4H-1,3-benzothiazin-4-one] | 132 to 133 °C | ≤ 0.0019 µg/mL | ≤ 0.00019 µg/mL | 0.125 µg/mL (≈ 0.29 µM) |  |
| CCCCCCCN1CCN(c2nc(=O)c3cc(C(F)(F)F)cc([N+](=O)[O-])c3s2)CC1 [Compound 8, 2-(4-heptylpiperazin-1-yl)-8-nitro-6-(trifluoromethyl)-4H-1,3-benzothiazin-4-one] | 125 to 127 °C | ≤ 0.0019 µg/mL | ≤ 0.00019 µg/mL | 0.125 µg/mL (≈ 0.273 µM) | Reduction of the CFU load in the lungs and spleens compared to treatment with BTZ043 [5]: significantly more efficacious |
| O=c1nc(N2CCN(Cc3ccncc3)CC2)sc2c([N+](=O)[O-])cc(C(F)(F)F)cc12 [Compound 9, 8-nitro-2-[4-(pyridin-4-ylmethyl)piperazin-1-yl]-6-(trifluoromethyl)-4H-1,3-benzothiazin-4-one] | 200 to 202 °C | 0.062 µg/mL (≈ 0.137 µM) | 0.015 µg/mL (≈ 0.0332 µM) | 0.125 µg/mL (≈ 0.277 µM) |  |
| O=c1nc(N2CCN(CCCCOc3ccccc3)CC2)sc2c([N+](=O)[O-])cc(C(F)(F)F)cc12 [Compound 10, 8-nitro-2-[4-(4-phenoxybutyl)piperazin-1-yl]-6-(trifluoromethyl)-4H-1,3-benzothiazin-4-one] | 256 to 258 °C | ≤ 0.0019 µg/mL | 0.0015 µg/mL (≈ 0.00295 µM) | ≤ 0.0019 µg/mL |  |
| COCCCN1CCN(c2nc(=O)c3cc(C(F)(F)F)cc([N+](=O)[O-])c3s2)CC1 [Compound 11, 2-[4-(3-methoxypropyl)piperazin-1-yl]-8-nitro-6-(trifluoromethyl)-4H-1,3-benzothiazin-4-one] | 133 to 134 °C | 0.031 µg/mL (≈ 0.0717 µM) | 0.00375 µg/mL (≈ 0.00867 µM) | 0.25 µg/mL (≈ 0.578 µM) |  |
| CCCCCN1CCN(c2nc(=O)c3cc(C(F)(F)F)cc([N+](=O)[O-])c3s2)CC1 [Compound 12] | 133 to 134 °C | ≤ 0.0019 µg/mL | 0.00037 µg/mL (≈ 0.00086 µM) | 0.015 µg/mL (≈ 0.0348 µM) |  |
| CCC(CC)N1CCN(c2nc(=O)c3cc(C(F)(F)F)cc([N+](=O)[O-])c3s2)CC1 [Compound 13, 2-[4-(1-ethylpropyl)piperazin-1-yl]-8-nitro-6-(trifluoromethyl)-4H-1,3-benzothiazin-4-one] | 152 to 153 °C | ≤ 0.0019 µg/mL | 0.00037 µg/mL (≈ 0.00086 µM) | ≤ 0.0019 µg/mL |  |
| O=c1nc(N2CCN(CCCC3CCCCC3)CC2)sc2c([N+](=O)[O-])cc(C(F)(F)F)cc12 [Compound 14, 2-[4-(3-cyclohexylpropyl)piperazin-1-yl]-8-nitro-6-(trifluoromethyl)-4H-1,3-benzothiazin-4-one] | 145 to 147 °C | ≤ 0.0019 µg/mL | ≤ 0.0019 µg/mL | 0.75 µg/mL (≈ 1.55 µM) |  |
| O=c1nc(N2CCN(C34CC5CC(CC(C5)C3)C4)CC2)sc2c([N+](=O)[O-])cc(C(F)(F)F)cc12 [Compound 15, 2-[4-(1-adamantyl)piperazin-1-yl]-8-nitro-6-(trifluoromethyl)-4H-1,3-benzothiazin-4-one] | 236 to 238 °C | 0.062 µg/mL (≈ 0.125 µM) | 0.015 µg/mL (≈ 0.0303 µM) | < 0.5 µg/mL |  |
| O=c1nc(N2CCN(CCOCc3ccccc3)CC2)sc2c([N+](=O)[O-])cc(C(F)(F)F)cc12 [Compound 16, 2-{4-[2-(benzyloxy)ethyl]piperazin-1-yl}-8-nitro-6-(trifluoromethyl)-4H-1,3-benzothiazin-4-one] | 117 to 119 °C | 0.031 µg/mL (≈ 0.0627 µM) | 0.019 µg/mL (≈ 0.0384 µM) | < 0.5 µg/mL |  |
| O=c1nc(N2CCN(CCCC3(c4ccc(F)cc4)OCCO3)CC2)sc2c([N+](=O)[O-])cc(C(F)(F)F)cc12 [Compound 17, 2-(4-{3-[2-(4-fluorophenyl)-1,3-dioxolan-2-yl]propyl}piperazin-1-yl)-8-nitro-6-(trifluoromethyl)-4H-1,3-benzothiazin-4-one] | 152 to 154 °C | 0.00375 µg/mL (≈ 0.0066 µM) | 0.0375 µg/mL (≈ 0.066 µM) | 0.25 µg/mL (≈ 0.44 µM) |  |
| O=c1nc(N2CCN(CCCOc3ccc(F)cc3)CC2)sc2c([N+](=O)[O-])cc(C(F)(F)F)cc12 [Compound 18, 2-{4-[3-(4-fluorophenoxy)propyl]piperazin-1-yl}-8-nitro-6-(trifluoromethyl)-4H-1,3-benzothiazin-4-one] |  | ≤ 0.0019 µg/mL | ≤ 0.0019 µg/mL | 0.25 µg/mL (≈ 0.488 µM) | LD50 at 7 days [4]: > 2000 mg/kg |
| CCCN1CCN(c2nc(=O)c3cc(C(F)(F)F)cc([N+](=O)[O-])c3s2)CC1 [Compound 19, 2-(4-propylpiperazin-1-yl)-8-nitro-6-(tfluoromethyl)-4H-1,3-benzothiazin-4-one] |  | ≤ 0.19 µg/mL | 0.0037 µg/mL (≈ 0.00919 µM) | 0.25 µg/mL (≈ 0.621 µM) | Log of CFU lungs [2]: 4.63; Medium longevity (days) M ± SEM [2]: Alive at sacrifice; Result of treatment, macroscopic condition of the lungs [2]: marked improvement |
| O=c1nc(N2CCN(CCCOc3ccc(F)cc3)CC2)sc2c([N+](=O)[O-])cc(Cl)cc12 [Compound 20, 6-chloro-2-{4-[3-(4-fluorophenoxy)propyl]piperazin-1-yl}-8-nitro-4H-1,3-benzothiazin-4-one] | 192 to 194 °C | ≤ 0.0019 µg/mL | ≤ 0.0019 µg/mL | 0.0031 µg/mL (≈ 0.00647 µM) |  |
| O=c1nc(N2CCN(CCCC3CCCCC3)CC2)sc2c([N+](=O)[O-])cc(Cl)cc12 [Compound 21, 6-chloro-2-[4-(3-cyclohexylpropyl)piperazin-1-yl]-8-nitro-4H-1,3-benzothiazin-4-one] | 194 to 195 °C | ≤ 0.0019 µg/mL | ≤ 0.0019 µg/mL | 0.062 µg/mL (≈ 0.137 µM) |  |
| NNC(=O)c1ccncc1 [Izoniazid, Isoniazid, reference compound] |  |  |  |  | Log of CFU lungs [2]: 4.34; Medium longevity (days) M ± SEM [2]: Alive at sacrifice; Result of treatment, macroscopic condition of the lungs [2]: marked improvement |
